Assay results from US20250057790A1, “AN INJECTABLE PHARMACEUTICAL COMPOSITION FOR THE TREATMENT OF RESPIRATORY DISEASES IN ANIMALS” (priority 2021, published 2025).
In brackets after ≈: the same amount, converted by molar mass.

Experiments:
A. pleuropneumoniae = test: MIC determination, broth-microdilution (CLSI VET01-A4), field isolates; assay type: cell-based, Actinobacillus pleuropneumoniae
Experimental: (§1) This study determined the in vitro activity Compound (A), the enantiomer of the compound of Formula (I), against different isolates of Actinobacillus (A.) pleuropneumoniae, Bordetella (B.) bronchiseptica, Mannheimia (M.) haemolytica, Pasteurella (P.) multocida, Histophilus (H.) somni and Glaesserella parasuis collected in different European countries.
(§2) The in vitro activity was determined by measuring the minimum inhibitory concentrations (MIC) according to CLSI document VET01-A4 [1] and by calculating MIC50 and MIC90.
(§3) A total of 193 field isolates were tested: 31 of A. pleuropneumoniae, 20 of B. bronchiseptica, 20 of H. somni, 20 H. parasuis, 55 of M. haemolytica and 47 of P. multocida. All bacteria were isolated from the respiratory tract of cattle and swine suffering from respiratory disease. All isolates were epidemiologically unrelated as specified by the different suppliers. E. coli ATCC 25922 (ID 6105) and M. haemolytica ATCC 33396 (ID 6374) were used as reference strains for testing isolates of B. bronchiseptica, M. haemolytica and P. multocida. A. pleuropneumoniae ATCC 27090 (ID 6314) and H. somni ATCC 700025 (ID 6315) were used as reference strains for the testing isolates of A. pleuropneumoniae, H. somni and Glaesserella parasuis. Additionally, H. parasuis (G. parasuis) ATCC 19417 was included as type strain for growth control.
(§4) • Mueller-Hinton agar (Becton Dickinson, Lot 9224866) • Cation-adjusted Mueller-Hinton broth, (CAVHB, Becton Dickinson, Lot 8190586) • Sheep blood, defibrinated (Thermo Scientific, Lot 37091500) • Chocolate agar, GC II with IsoVitalex™ (Becton Dickinson, Lot 0147695) • GC-agar base (Becton Dickinson, Lot 6082608) • Hemoglobin solution (Becton Dickinson, Lot 7142854) • Vitox (Oxoid, Lot 2344976) • Veterinary fastidious Medium (VFM), prepared according to CLSI document VET01-A4 [1], containing: • CAMHB (Becton Dickinson, Lot 8190586) • Yeast extract (Sigma, Lot BCBS5470V) • Lysed horse blood (Thermo Scientific, Lot 35875000) • Supplement C™ (Becton Dickinson, Lot 8030960) • Deionized water
(§5) The MICs for all isolates except for H. somni and Glaesserella parasuis isolates, were determined by using the broth-microdilution method according to CLSI document VET01-A4 [1]. For isolates of H. somni and Glaesserella parasuis the agar-dilution method with chocolate agar GC II, was used. The test concentration range for all compounds was 16 μg/mL to 0.016 μg/mL.
The MIC results were interpreted according to the CLSI document VET01-S3 [2]. […] All wells containing test item were compared with the growth-control wells. The lowest concentration of compound at which no visible growth (i.e. no turbidity) was detected by the unaided eye was recorded as the MIC. […]

M. haemolytica = test: as above; assay type: cell-based, Mannheimia haemolytica
Experimental: as §1, §2, §3, §4, §5
(§6) The MIC results were interpreted according to the CLSI document VET01-S3 [2]. […] All wells containing test item were compared with the growth-control wells. The lowest concentration of compound at which no visible growth (i.e. no turbidity) was detected by the unaided eye was recorded as the MIC. If a “trailing endpoint” occurs, the MIC is defined as the first concentration at which a markedly reduction (about 90%) of the inoculum is observed.
(§7) For isolates tested by the agar-dilution method, results were interpreted according to the CLSI document VET01-S3 [2]. […] The MIC50 and MIC90 represent the concentrations at which a minimum of 50% or 90% of the isolates tested are inhibited.

[1] = system: P. multocida (bovine origin); test: as above; assay type: cell-based, Pasteurella multocida
Experimental: as §1, §2, §3, §4, §5, §6, §7

[2] = system: P. multocida (porcine origin); test: as above; assay type: cell-based, Pasteurella multocida
Experimental: as §1, §2, §3, §4, §5, §6, §7

H. somni = test: MIC determination, broth microdilution, field isolates; assay type: cell-based, Histophilus somni
Experimental: as §1, §2, §3, §4
[…] […] The test concentration range for all compounds was 16 μg/mL to 0.016 μg/mL.
as §6
[…] […] The MIC50 and MIC90 represent the concentrations at which a minimum of 50% or 90% of the isolates tested are inhibited.

[3] = Lung tissue study in cattle; assay type: in vivo; conditions: after slaughter
Experimental: The same animals and compositions of Compound A that were used in Example 5 were also used for the Lung tissue study. The lung was freed from the trachea and appending tissues. One half of the lung was homogenized using a food processor (Robot Coupe). Two aliquots of approximately 1 g were placed into 15 mL Falcon tubes. From the liver, kidney and a skeletal muscle (long back muscle) scissor snips from at least two locations were collected to a total mass of ca. 1 g each and placed into 15 mL Falcon tubes. Tissue samples were diluted with blank EDTA cattle plasma 1+3 (w/v) and samples were homogenized using a FastPrep™ System. After centrifugation aliquots of the supernatants were used to determine compound concentrations by a HPLC-MS/MS procedure.

[4] = system: microbes that cause respiratory disease in animals; test: Activity against the microbes that cause respiratory disease in animals (statement); assay type: cell-based
[5] = Actinobacillus pleuropneumoniae, 31 isolates, broth microdilution
[6] = Mannheimia haemolytica, 55 isolates, broth microdilution
[7] = Pasteurella multocida, 25 isolates of bovine origin, broth microdilution
[8] = of 25 isolates tested, bovine origin
[9] = Pasteurella multocida, 22 isolates of porcine origin, broth microdilution
[10] = of 22 isolates tested, porcine origin

COCCNCc1ccc(C#Cc2ccc(C(=O)N[C@H](C(=O)NO)C(C)(C)N)cc2)cc1 [Compound A]
MIC50 (A. pleuropneumoniae; [5]): 1 µg/mL (≈ 2.28 µM) | MIC90 (A. pleuropneumoniae; [5]): 2 µg/mL (≈ 4.56 µM) | Distribution of MICs: number of isolates with MIC 1 μg/mL (A. pleuropneumoniae; of 31 isolates tested): 22 | Distribution of MICs: number of isolates with MIC 2 μg/mL (A. pleuropneumoniae; of 31 isolates tested): 9 | MIC50 (M. haemolytica; [6]): 0.5 µg/mL (≈ 1.14 µM) | MIC90 (M. haemolytica; [6]): 0.5 µg/mL (≈ 1.14 µM) | Distribution of MICs: number of isolates with MIC 0.063 μg/mL (M. haemolytica; of 55 isolates tested): 2 | Distribution of MICs: number of isolates with MIC 0.125 μg/mL (M. haemolytica; of 55 isolates tested): 6 | Distribution of MICs: number of isolates with MIC 0.25 μg/mL (M. haemolytica; of 55 isolates tested): 15 | Distribution of MICs: number of isolates with MIC 0.5 μg/mL (M. haemolytica; of 55 isolates tested): 27 | Distribution of MICs: number of isolates with MIC 1 μg/mL (M. haemolytica; of 55 isolates tested): 5 | MIC50 [1, 7]: 0.032 µg/mL (≈ 0.073 µM) | MIC90 [1, 7]: 0.063 µg/mL (≈ 0.144 µM) | Distribution of MICs: number of isolates with MIC 0.032 μg/mL [1, 8]: 12 | Distribution of MICs: number of isolates with MIC 0.063 μg/mL [1, 8]: 6 | Distribution of MICs: number of isolates with MIC 0.125 μg/mL [1, 8]: 1 | Distribution of MICs: number of isolates with MIC ≤0.016 μg/mL [1, 8]: 6 | MIC50 [2, 9]: 0.032 µg/mL (≈ 0.073 µM) | MIC90 [2, 9]: 0.063 µg/mL (≈ 0.144 µM) | Distribution of MICs: number of isolates with MIC 0.032 μg/mL [2, 10]: 12 | Distribution of MICs: number of isolates with MIC 0.063 μg/mL [2, 10]: 6 | Distribution of MICs: number of isolates with MIC 0.125 μg/mL [2, 10]: 1 | Distribution of MICs: number of isolates with MIC ≤0.016 μg/mL [2, 10]: 3 | MIC50 (H. somni; Histophilus somni, 20 isolates): 0.5 µg/mL (≈ 1.14 µM) | MIC90 (H. somni; Histophilus somni, 20 isolates): 1 µg/mL (≈ 2.28 µM) | Distribution of MICs: number of isolates with MIC 0.125 μg/mL (H. somni; of 20 isolates tested): 1 | Distribution of MICs: number of isolates with MIC 0.25 μg/mL (H. somni; of 20 isolates tested): 5 | Distribution of MICs: number of isolates with MIC 0.5 μg/mL (H. somni; of 20 isolates tested): 8 | Distribution of MICs: number of isolates with MIC 1 μg/mL (H. somni; of 20 isolates tested): 5 | Distribution of MICs: number of isolates with MIC 2 μg/mL (H. somni; of 20 isolates tested): 1 | Detection in tissue samples from lungs [3]: substantial amounts | Activity against the microbes that cause respiratory disease in animals [4]: activity against the microbes that cause respiratory disease in animals
